Assay results: the NIST ThermoML archive (doi:10.1021/je500772z)

Assay: osmotic coefficient (dimensionless); mn = molality of the nth substance listed, in mol/kg
Conditions: 298.15 K, Liquid, isopiestic method

CC(C)[C@H](N)C(=O)[O-].CCCCn1cc[n+](C)c1 [1-butyl-3-methylimidazolium L-valinate] + O
Conditions	osmotic coefficient
m1 = 0	1
m1 = 0.013	0.9595
m1 = 0.0202	0.9384
m1 = 0.0421	0.923
m1 = 0.0582	0.9121
m1 = 0.0723	0.9019
m1 = 0.1086	0.8899
m1 = 0.1458	0.8851
m1 = 0.1932	0.8794
m1 = 0.2434	0.8759
m1 = 0.2848	0.879
m1 = 0.3283	0.8828
m1 = 0.4013	0.8908
m1 = 0.4421	0.8986
m1 = 0.5035	0.9098
m1 = 0.576	0.9279

CCCCn1cc[n+](C)c1.C[C@H](N)C(=O)[O-] [3-butyl-1-methyl-1H-imidazolium L-alaninate] + O
Conditions	osmotic coefficient
m1 = 0	1
m1 = 0.0134	0.9617
m1 = 0.0183	0.9405
m1 = 0.0416	0.9262
m1 = 0.0612	0.9103
m1 = 0.0821	0.9008
m1 = 0.109	0.8865
m1 = 0.1518	0.8725
m1 = 0.1962	0.8661
m1 = 0.242	0.8654
m1 = 0.2834	0.863
m1 = 0.3192	0.8594
m1 = 0.3741	0.8633
m1 = 0.4453	0.8672
m1 = 0.5047	0.8715
m1 = 0.5755	0.8812

CC(C)C[C@H](N)C(=O)[O-].CCCCn1cc[n+](C)c1 [1-butyl-3-methylimidazolium L-leucinate] + O
Conditions	osmotic coefficient
m1 = 0	1
m1 = 0.0117	0.9528
m1 = 0.0184	0.9362
m1 = 0.0387	0.9254
m1 = 0.0649	0.9104
m1 = 0.0795	0.9093
m1 = 0.1123	0.9025
m1 = 0.1532	0.8977
m1 = 0.1914	0.8982
m1 = 0.2319	0.9005
m1 = 0.2687	0.9029
m1 = 0.3111	0.9101
m1 = 0.3711	0.9187
m1 = 0.4373	0.9255
m1 = 0.4915	0.9328
m1 = 0.5503	0.9423

CCCCn1cc[n+](C)c1.NCC(=O)[O-] [1-butyl-3-methylimidazolium glycinate] + O
Conditions	osmotic coefficient
m1 = 0	1
m1 = 0.0179	0.941
m1 = 0.0266	0.9408
m1 = 0.0509	0.9167
m1 = 0.0737	0.9076
m1 = 0.0978	0.8916
m1 = 0.1314	0.8739
m1 = 0.1811	0.8658
m1 = 0.2166	0.853
m1 = 0.263	0.8465
m1 = 0.3181	0.8432
m1 = 0.3693	0.8407
m1 = 0.4305	0.8405
m1 = 0.5055	0.8474
m1 = 0.5791	0.8523
m1 = 0.6439	0.8526
